Literature values, collected in patent US6514710B1, “Method of using cyclic peptides to inhibit binding to urokinase-type plasminogen activator receptor” (Angstrom Pharmaceuticals, Inc., priority 1996, dated 2003).
Read-outs that look alike come from different tables or passages of the source.

Tests used:
[1] = system: murine Lewis Lung carcinoma; details: murine Lewis Lung carcinoma in mice; peptides derived from the mouse sequence
uPAR [2] = molecular target: T1, uPAR (Homo sapiens, UniProt Q03405); details: read-out: IC50, prevention of uPA binding to uPAR
uPAR [3] = molecular target: T1, uPAR; details: read-out: IC50, inhibition of the binding of uPA to uPAR

T1 sequence (Q03405 23-305): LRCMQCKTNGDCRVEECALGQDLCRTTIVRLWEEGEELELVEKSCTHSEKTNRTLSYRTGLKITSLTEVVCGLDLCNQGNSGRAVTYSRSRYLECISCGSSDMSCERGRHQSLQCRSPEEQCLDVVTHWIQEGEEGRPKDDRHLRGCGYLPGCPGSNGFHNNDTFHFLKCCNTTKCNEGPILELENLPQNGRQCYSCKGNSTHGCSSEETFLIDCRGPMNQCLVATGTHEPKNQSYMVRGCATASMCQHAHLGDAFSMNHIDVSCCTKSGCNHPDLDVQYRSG

Substance | inhibition of spontaneous metastasis [1] | IC50 (uPAR [2]) [µM] | IC50 (uPAR [3]) [µM]
corresponding linear shorter peptide (20-30): linear shorter peptide (20-30) corresponding to the mouse sequence (CVSYKYFSRIR; UniProt P06869 40-50, looked up, fragment) | had no effect | – | –
[Ala^19]uPA-(12-32) [[Ala^19]uPA-(12-32) oxidized cyclic form] | – | 0.04 | –
peptide (17-34) derived from the mouse sequence: corresponding longer peptide (17-34) derived from the mouse uPA sequence (GGVCVSYKYFSRIRRCSC; UniProt P06869 37-54, looked up, fragment) | inhibited spontaneous metastasis | – | –
linear peptide 20-30: linear peptide of uPA residues 20-30 (VSNKYFSNIHW; UniProt P00749 40-50, looked up, fragment) | – | – | 1
[Ala^19]uPA-(12-32) [[Ala^19]uPA-(12-32) open chain form] | – | 0.1 | –
peptide 17-34: longer peptide of uPA residues 17-34 (GTCVSNKYFSNIHWCNCP; UniProt P00749 37-54, looked up, fragment) | – | – | 0.1
